From BindingDB's records for doi:10.1021/jm00068a006 (Merck Research Laboratories, 1993) come the findings set out here.

By IC50 is commonly meant the concentration needed to halve the response being measured. A higher IC50 goes with weaker potency.

The assay concerns the target T1, Dimer of Gag-Pol polyprotein [489-587] (Human immunodeficiency virus 1, UniProt P12497).
T1 construct: 489-587
In words: Protease Inhibition Assay. The following applies: pH 5.5; 30 °C.

Structures are written as SMILES.

Consider `CC(C)(C)NC(=O)[C@@H]1C[C@@H]2CCCC[C@@H]2CN1C[C@@H](O)[C@H](Cc1ccccc1)NC(=O)[C@@H](NC(=O)c1ccc2ccccc2n1)[C@H]1CCOC1` [(3S,4aS,8aS)-N-tert-butyl-2-[(2R,3S)-2-hydroxy-3-[(2S)-2-[(3R)-oxolan-3-yl]-2-(quinolin-2-ylformamido)acetamido]-4-phenylbutyl]-decahydroisoquinoline-3-carboxamide], for which the 50% inhibitory concentration (IC50) worked out at 0.054 nM.
